From patent US9227971B2, “Pyrazolo[1,5-a]pyrimidine compounds as mTOR inhibitors” (Merck Sharp & Dohme Corp., priority 2010, dated 2016) come the findings set out here.

Structures are written as SMILES. Like-named read-outs stand apart in the source and are kept apart here.

The test system of assay [1] is phosphorylated 4E-BP1 Thr37/46 (p4E-BP1 Thr37/46), mTORC1 activity, PC3 cells. Briefly: mTOR target engagement assay, immunofluorescent cell-based, p4E-BP1 Thr37/46 readout (mTORC1 activity). To be noted: read-out: p4E-BP1 Thr37/46 IC50. The procedure, abridged:
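PTEN-mutant PC3 prostate cells were treated with serially diluted compound in 5% FBS F12 medium (0.25% DMSO) for ninety minutes at 37° C, glyoxal-fixed, then immunostained overnight at 4° C for p4E-BP1 Thr37/46 with an Alexa Fluor 488 secondary. IC50 came from four-parameter fits of fluorescence, DMSO-only wells defining 100%.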

Assay [2] has as its system phosphorylated AKT Ser473 (pAKT S473), mTORC2 activity, PC3 cells. Briefly: mTOR target engagement assay, immunofluorescent cell-based, pAKT S473 readout (mTORC2 activity). Put shortly: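 After blocking, cells were stained overnight at 4 °C with anti-pAKT S473 antibody, then a fluorescent secondary; inhibition was read as reduced fluorescence intensity.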
[3] abbreviates: Homo sapiens, PC-3, PC3 cells, compound treatment ninety minutes at 37° C.
Setting [4] is: Homo sapiens, PC-3, Table 3-1, PC3 cells.
Where [5] appears, read: Homo sapiens, PC-3, Table 7-5, PC3 cells.
The mark [6] stands for this setting: Homo sapiens, PC-3, Table 6-1, PC3 cells.

Consider `CC(=O)c1c([C@@H]2C[C@H]3CC[C@@H](C2)N3C(=O)c2nnc[nH]2)nc2c(-c3cnc(-c4ccccc4)c(O)c3)cnn2c1N` [Compound 1.1.31, 1-(5-((1R,3s,5S)-8-(4H-1,2,4-triazole-3-carbonyl)-8-azabicyclo[3.2.1]octan-3-yl)-7-amino-3-(5-hydroxy-6-phenylpyridin-3-yl)pyrazolo[1,5-a]pyrimidin-6-yl)ethanone], for which the IC50 in assay [1] (setting [3]) and in assay [2] (setting [3]) was 1000 to 10000 nM throughout.
Take `CS(=O)(=O)c1c([C@H]2CC3CC[C@H](C2)N3C(=O)c2nnc[nH]2)nc2c(-c3ccc(C4CCCC4)nc3)cnn2c1N` [Compound 3.166, ((1R,3s,5S)-3-(7-amino-3-(6-cyclopentylpyridin-3-yl)-6-(methylsulfonyl)pyrazolo[1,5-a]pyrimidin-5-yl)-8-azabicyclo[3.2.1]octan-8-yl)(4H-1,2,4-triazol-3-yl)methanone]: the IC50 in assay [1] (setting [4]) and in assay [2] (setting [4]) was 100 to 1000 nM throughout.
As for `CCNC(=O)N1[C@@H]2CC[C@H]1C[C@H](c1nc3c(-c4ccc(-c5ccccc5)nc4)cnn3c(N)c1C1CC1)C2` [Compound 4.5, (1R,3s,5S)-3-(7-amino-6-cyclopropyl-3-(6-phenylpyridin-3-yl)pyrazolo[1,5-a]pyrimidin-5-yl)-N-ethyl-8-azabicyclo[3.2.1]octane-8-carboxamide], the IC50 in assay [1] (setting [3]) and in assay [2] (setting [3]) was 100 to 1000 nM in each case.
On to `CS(=O)(=O)c1c([C@H]2CC3CC[C@H](C2)N3C(=O)c2cn[nH]n2)nc2c(-c3ccc(-c4ccccc4F)nc3)cnn2c1N` [Compound 3.170, ((1R,3s,5S)-3-(7-amino-3-(6-(2-fluorophenyl)pyridin-3-yl)-6-(methylsulfonyl)pyrazolo[1,5-a]pyrimidin-5-yl)-8-azabicyclo[3.2.1]octan-8-yl)(2H-1,2,3-triazol-4-yl)methanone], for which the IC50 in assay [1] (setting [4]) and in assay [2] (setting [4]) was 100 to 1000 nM each time.
Take `CC(=O)c1c([C@@H]2C[C@H]3CC[C@@H](C2)N3C(=O)c2nnc[nH]2)nc2c(-c3ccc(-c4ccncc4)nc3)cnn2c1N` [Compound 1.1.76, 1-(3-(2,4′-bipyridin-5-yl)-5-((1R,3s,5S)-8-(4H-1,2,4-triazole-3-carbonyl)-8-azabicyclo[3.2.1]octan-3-yl)-7-aminopyrazolo[1,5-a]pyrimidin-6-yl)ethanone]: the IC50 in assay [1] (setting [3]) and in assay [2] (setting [3]) was 100 to 1000 nM throughout.
Turning to `CC(=O)c1c([C@@H]2C[C@H]3CC[C@@H](C2)N3C(=O)c2nnc[nH]2)nc2c(-c3ccc(C(N)(C(F)(F)F)C(F)(F)F)nc3)cnn2c1N` [Compound 7.80, 1-(5-((1R,3s,5S)-8-(4H-1,2,4-triazole-3-carbonyl)-8-azabicyclo[3.2.1]octan-3-yl)-7-amino-3-(6-(2-amino-1,1,1,3,3,3-hexafluoropropan-2-yl)pyridin-3-yl)pyrazolo[1,5-a]pyrimidin-6-yl)ethanone], the IC50 was in the range of 100 to 1000 nM in assay [1] (Homo sapiens, PC-3, PC3 cells) and 1000 to 10000 nM in assay [2] (Homo sapiens, PC-3, PC3 cells).
As to `CS(=O)(=O)c1c([C@@H]2C[C@H]3CC[C@@H](C2)N3C(=O)c2nnc[nH]2)nc2c(-c3ccc(C(N)=O)c(F)c3)cnn2c1N` [Compound 3.155, 4-(5-((1R,3s,5S)-8-(4H-1,2,4-triazole-3-carbonyl)-8-azabicyclo[3.2.1]octan-3-yl)-7-amino-6-(methylsulfonyl)pyrazolo[1,5-a]pyrimidin-3-yl)-2-fluorobenzamide], the IC50 is 1000 to 10000 nM in assay [1] (setting [4]) and over 10000 nM in assay [2] (setting [4]).
Take `COCCNC(=O)N1[C@@H]2CC[C@H]1C[C@H](c1nc3c(-c4ccc(-c5ccccc5)nc4)cnn3c(N)c1C1CC1)C2` [Compound 4.7, (1R,3s,5S)-3-(7-amino-6-cyclopropyl-3-(6-phenylpyridin-3-yl)pyrazolo[1,5-a]pyrimidin-5-yl)-N-(2-methoxyethyl)-8-azabicyclo[3.2.1]octane-8-carboxamide]: the IC50 in assay [1] (setting [3]) and in assay [2] (setting [3]) was 100 to 1000 nM throughout.
As to `Nc1c(C2CC2)c([C@H]2CC3CC[C@H](C2)N3C(=O)c2nnc[nH]2)nc2c(-c3cnc4c(c3)OCCC4O)cnn12` (stereo partly drawn) [Compound 7.64, ((1R,3s,5S)-3-(7-amino-6-cyclopropyl-3-(4-hydroxy-3,4-dihydro-2H-pyrano[3,2-b]pyridin-7-yl)pyrazolo[1,5-a]pyrimidin-5-yl)-8-azabicyclo[3.2.1]octan-8-yl)(4H-1,2,4-triazol-3-yl)methanone], the IC50 in assay [1] (Homo sapiens, PC-3, PC3 cells) was in the range of 100 to 1000 nM; in assay [2] (Homo sapiens, PC-3, PC3 cells), 100 to 1000 nM.
`Cc1nc(-c2ccc(-c3cnn4c(N)c(S(C)(=O)=O)c([C@@H]5C[C@H]6CC[C@@H](C5)N6C(=O)c5cn[nH]n5)nc34)cn2)cs1` [Compound 3.201, ((1R,3s,5S)-3-(7-amino-6-(methylsulfonyl)-3-(6-(2-methylthiazol-4-yl)pyridin-3-yl)pyrazolo[1,5-a]pyrimidin-5-yl)-8-azabicyclo[3.2.1]octan-8-yl)(2H-1,2,3-triazol-4-yl)methanone]: the IC50 in assay [1] (setting [4]) lay in the range of 1000 to 10000 nM; in assay [2] (setting [4]), 100 to 1000 nM.
In the same order, the values of `CS(=O)(=O)c1c([C@@H]2C[C@H]3CC[C@@H](C2)N3C=O)nc2c(-c3ccc(-c4ccccc4)nc3)cnn2c1N` [Compound 3.19, (1R,3s,5S)-3-(7-amino-6-(methylsulfonyl)-3-(6-phenylpyridin-3-yl)pyrazolo[1,5-a]pyrimidin-5-yl)-8-azabicyclo[3.2.1]octane-8-carbaldehyde] are 100 to 1000 nM and 100 to 1000 nM.
With `CS(=O)(=O)c1c([C@@H]2C[C@H]3CC[C@@H](C2)N3C(=O)c2nnc[nH]2)nc2c(-c3ccc(CO)nc3)cnn2c1N` [Compound 7.35, ((1R,3s,5S)-3-(7-amino-3-(6-(hydroxymethyl)pyridin-3-yl)-6-(methylsulfonyl)pyra-zolo[1,5-a]pyrimidin-5-yl)-8-azabicyclo[3.2.1]octan-8-yl)(4H-1,2,4-triazol-3-yl)methanone], the IC50 in assay [1] (setting [5]) and in assay [2] (setting [5]) was 100 to 1000 nM throughout.
For `CC(=O)c1c([C@@H]2C[C@H]3CC[C@@H](C2)N3C(=O)c2ccn[nH]2)nc2c(-c3ccc(-c4ccc(F)cc4F)nc3)cnn2c1N` [Compound 1.1.167, 1-(5-((1R,3s,5S)-8-(1H-pyrazole-5-carbonyl)-8-azabicyclo[3.2.1]octan-3-yl)-7-amino-3-(6-(2,4-difluorophenyl)pyridin-3-yl)pyrazolo[1,5-a]pyrimidin-6-yl)ethanone], the IC50 fell in the range of 100 to 1000 nM in assay [1] (setting [3]) and 1 to 100 nM in assay [2] (setting [3]).
With `Nc1c(C2CC2)c([C@@H]2C[C@H]3CC[C@@H](C2)N3C(=O)c2cc[nH]c2)nc2c(-c3ccc(-c4ncc[nH]4)nc3)cnn12` [Compound 6.14, ((1R,3s,5S)-3-(3-(6-(1H-imidazol-2-yl)pyridin-3-yl)-7-amino-6-cyclopropylpyrazolo [1,5-a]pyrimidin-5-yl)-8-azabicyclo[3.2.1]octan-8-yl)(1H-pyrrol-3-yl)methanone], the IC50 was 100 to 1000 nM in assay [1] (setting [6]) and 1 to 100 nM in assay [2] (setting [6]).
As for `CC(=O)c1c([C@@H]2C[C@H]3CC[C@@H](C2)N3C(N)=O)nc2c(-c3ccc(-c4ncc[nH]4)nc3)cnn2c1N` [Compound 6.30, (1R,3s,5S)-3-(3-(6-(1H-imidazol-2-yl)pyridin-3-yl)-6-acetyl-7-aminopyrazolo[1,5-a]pyrimidin-5-yl)-8-azabicyclo[3.2.1]octane-8-carboxamide], the IC50 in assay [1] (setting [6]) and in assay [2] (setting [6]) was 1 to 100 nM throughout.
In the case of `CC(=O)c1c([C@@H]2C[C@H]3CC[C@@H](C2)N3C(=O)c2nnc(C)[nH]2)nc2c(-c3ccc(C(C)(C)O)nc3)cnn2c1N` [Compound 7.9, 1-(7-amino-3-(6-(2-hydroxypropan-2-yl)pyridin-3-yl)-5-((1R,3s,5S)-8-(5-methyl-4H-1,2,4-triazole-3-carbonyl)-8-azabicyclo[3.2.1]octan-3-yl)pyrazolo[1,5-a]pyrimidin-6-yl)ethanone], the IC50 in assay [1] (setting [3]) and in assay [2] (setting [3]) was 100 to 1000 nM in each case.
With `CC(=O)c1c([C@@H]2C[C@H]3CC[C@@H](C2)N3C(=O)CO)nc2c(-c3ccc(C(N)(C(F)(F)F)C(F)(F)F)nc3)cnn2c1N` [Compound 7.81, 1-((1R,3s,5S)-3-(6-acetyl-7-amino-3-(6-(2-amino-1,1,1,3,3,3-hexafluoropropan-2-yl)pyridin-3-yl)pyrazolo[1,5-a]pyrimidin-5-yl)-8-azabicyclo[3.2.1]octan-8-yl)-2-hydroxyethanone], the IC50 in assay [1] (Homo sapiens, PC-3, PC3 cells) is 1000 to 10000 nM; in assay [2] (Homo sapiens, PC-3, PC3 cells) it was over 10000 nM.
In the case of `CC(=O)c1c([C@@H]2C[C@H]3CC[C@@H](C2)N3C(=O)c2nnc[nH]2)nc2c(-c3cnc(-c4ccccc4)nc3)cnn2c1N` [Compound 1.1.179, 1-(5-((1R,3s,5S)-8-(4H-1,2,4-triazole-3-carbonyl)-8-azabicyclo[3.2.1]octan-3-yl)-7-amino-3-(2-phenylpyrimidin-5-yl)pyrazolo[1,5-a]pyrimidin-6-yl)ethanone], the IC50 in assay [1] (setting [3]) and in assay [2] (setting [3]) was 1 to 100 nM each time.
In the case of `Cc1ccc(-c2cnn3c(N)c(S(C)(=O)=O)c([C@@H]4C[C@H]5CC[C@@H](C4)N5C(=O)c4nnc[nH]4)nc23)cn1` [Compound 3.68, ((1R,3s,5S)-3-(7-amino-3-(6-methylpyridin-3-yl)-6-(methylsulfonyl)pyrazolo[1,5-a]pyrimidin-5-yl)-8-azabicyclo[3.2.1]octan-8-yl)(4H-1,2,4-triazol-3-yl)methanone], the IC50 lay within 100 to 1000 nM in assay [1] (Table 3-1, PC3 cells) and 100 to 1000 nM in assay [2] (Table 3-1, PC3 cells).
